Laboratory results taken from patent publication US5665718A, “Imidazodiazepines” (Hoffmann-La Roche Inc., priority 1994, dated 1997).
Read-outs that look alike come from different tables or passages of the source.

What was measured:
[1] = target: central benzodiazepine receptors; experiment: Affinity to central benzodiazepine receptors: inhibition of binding of tritiated flumazenil in rat cortex; conditions: in vitro
Description: The affinity of compounds of general formula I to the central benzodiazepine receptors was established in vitro according to the methods described in Nature 294, 763-765 (1981) and J. Neurochemistry 37, 714-722 (1981). According to these methods, the inhibition of the binding of tritiated flumazenil to the specific benzodiazepine receptors in the cortex of rats by the respective test substances is determined. The IC50 ("50% inhibiting concentration") denotes that concentration of the respective test substance which brings about a 50 per cent inhibition of the specific binding of tritiated flumazenil to the specific benzodiazepine receptors in the cortex of rats.

[2] = Rotating rod test (sedative/muscle relaxant properties), i.v.; type: in vivo; conditions: Mus musculus, iv, mice
Description: The sedative/muscle relaxant properties of the compounds of formula I in accordance with the invention can be determined, for example, in the rotating rod test. Mice weighing 19-21 g are used for this test. They have free access to feed and drinking water up to 1 hour before the beginning of the test. They are brought into the test laboratory at least 30 minutes before the test. In the rotating rod test the animals are placed on a horizontally arranged, smooth metal rod having a diameter of 3 cm, which is rotated at 2 revolutions per minute. Initially, the animals are given the opportunity of familiarizing themselves with the test situation for 30 seconds. Subsequently, those animals which succeed in remaining on the rod for at least 1 minute are selected. These animals are then given the test preparations intravenously in different dosages. At various points in time it is then determined whether the animals are able to remain on the rod for a minimum period (minimum period: 10 seconds; from 5 minutes after administration: 1 minute.). That dosages at which 50% of the animals are capable of remaining on the rod (ED 50) is determined.

[3] = Fatalities after i.v. administration to mice; type: in vivo; conditions: 32 and 100 mg/kg i.v.
[4] = Fatalities after i.v. administration to rats; type: in vivo; conditions: 32 and 100 mg/kg i.v.
[5] = 15 s, 15 sec after administration, read-out: Rotating rod test, ED50, 15 sec after administration
[6] = 0.5 min, 30 sec after administration, read-out: Rotating rod test, ED50, 30 sec after administration
[7] = 1 min, 60 sec after administration, read-out: Rotating rod test, ED50, 60 sec after administration
[8] = 2 min, 2 min after administration, read-out: Rotating rod test, ED50, 2 min after administration
[9] = 5 min, 5 min after administration, read-out: Rotating rod test, ED50, 5 min after administration
[10] = 0.25 h, 15 min after administration, read-out: Rotating rod test, ED50, 15 min after administration
[11] = 0.5 h, 30 min after administration, read-out: Rotating rod test, ED50, 30 min after administration
[12] = 1 h, 60 min after administration, read-out: Rotating rod test, ED50, 60 min after administration

Question: Which IC50 [1] does the source give for `CCCN(CCC)Cc1nc(-c2ncn3c2CN(C)C(=O)c2c(F)cccc2-3)no1` [J, 7-fluoro-5-methyl-3-(5-dipropylaminomethyl-1,2,4-oxadiazol-3-yl)-5,6-dihydro-4H-imidazo[1,5-a][1,4]benzodiazepin-6-one] here?
Answer: Its IC50 is 2.3 nM.

Question: What about the ED50 [2, 5] of the same molecule?
Answer: The ED50 was 0.1 mg/kg.

Question: What about the ED50 [2, 6] of the same molecule?
Answer: Its ED50 is 0.2 mg/kg.

Question: And the ED50 [2, 7]?
Answer: The ED50 was 0.3 mg/kg.

Question: What about the ED50 [2, 8] of the same molecule?
Answer: Its ED50 is 0.4 mg/kg.

Question: And the ED50 [2, 9]?
Answer: Its ED50 is 1.1 mg/kg.

Question: What about the ED50 [2, 10] of the same molecule?
Answer: Its ED50 is greater than 10 mg/kg.

Question: And the ED50 [2, 11]?
Answer: Its ED50 is greater than 10 mg/kg.

Question: What about the ED50 [2, 12] of the same molecule?
Answer: Its ED50 is greater than 10 mg/kg.

Question: For `C=CCN(CC=C)Cc1nc(-c2ncn3c2[C@@H]2CCN2C(=O)c2c-3ccc(F)c2Cl)no1` [E, (S)-1-(5-diallylaminomethyl-1,2,4-oxadiazol-3-yl)-8-chloro-7-fluoro-12,12a-dihydro-9H,11H-azeto[2,1-c]imidazo[1,5-a][1,4]benzodiazepin-9-one], which IC50 [1] is on record?
Answer: The IC50 was 10 nM.

Question: And the ED50 [2, 5]?
Answer: Its ED50 is 0.2 mg/kg.

Question: And the ED50 [2, 6]?
Answer: Its ED50 is 0.3 mg/kg.

Question: What about the ED50 [2, 7] of the same molecule?
Answer: The ED50 was 0.3 mg/kg.

Question: And the ED50 [2, 8]?
Answer: The ED50 was 0.4 mg/kg.

Question: What about the ED50 [2, 9] of the same molecule?
Answer: The ED50 was 0.8 mg/kg.

Question: And the ED50 [2, 10]?
Answer: The ED50 was 3.9 mg/kg.

Question: And the ED50 [2, 11]?
Answer: Its ED50 is no less than 10 mg/kg.

Question: And the ED50 [2, 12]?
Answer: The ED50 was greater than 10 mg/kg.

Question: And the fatalities [3]?
Answer: The fatalities was “without fatalities occurring”.

Question: And the fatalities [4]?
Answer: The fatalities was “without fatalities occurring”.

Question: With `CCCN(CCC)Cc1nc(-c2ncn3c2[C@@H]2CCN2C(=O)c2sccc2-3)no1` [B, (S)-1-(5-dipropylaminomethyl-1,2,4-oxadiazol-3-yl)-11,11a-dihydro-8H,10H-azeto[1,2-a]imidazo[5,1-c]thieno[3,2-e][1,4]diazepin-8-one] as the molecule, how does the IC50 [1] read?
Answer: The IC50 was 4.3 nM.

Question: And the ED50 [2, 5]?
Answer: Its ED50 is 0.1 mg/kg.

Question: What about the ED50 [2, 6] of the same molecule?
Answer: The ED50 was 0.1 mg/kg.

Question: What about the ED50 [2, 7] of the same molecule?
Answer: The ED50 was 0.2 mg/kg.

Question: What about the ED50 [2, 8] of the same molecule?
Answer: Its ED50 is 0.4 mg/kg.

Question: And the ED50 [2, 9]?
Answer: Its ED50 is 0.7 mg/kg.

Question: And the ED50 [2, 10]?
Answer: The ED50 was 3.5 mg/kg.

Question: And the ED50 [2, 11]?
Answer: The ED50 was greater than 10 mg/kg.

Question: And the ED50 [2, 12]?
Answer: The ED50 was greater than 10 mg/kg.

Question: And the fatalities [3]?
Answer: Its fatalities is “without fatalities occurring”.

Question: What about the fatalities [4] of the same molecule?
Answer: The fatalities was “without fatalities occurring”.

Question: Which results are given for `CC(C)N(Cc1nc(-c2ncn3c2CN(C)C(=O)c2cc(F)ccc2-3)no1)C(C)C` [P, 3-(5-diisopropylaminomethyl-1,2,4-oxadiazol-3-yl)-8-fluoro-5-methyl-5,6-dihydro-4H-imidazo[1,5-a][1,4]benzodiazepin-6-one]?
Answer: IC50 [1]: 4.1 nM; ED50 [2, 5]: 0.1 mg/kg; ED50 [2, 6]: 0.2 mg/kg; ED50 [2, 7]: 0.3 mg/kg; ED50 [2, 8]: 0.7 mg/kg; ED50 [2, 9]: 1 mg/kg; ED50 [2, 10]: 4.3 mg/kg; ED50 [2, 11]: ≥ 10 mg/kg; ED50 [2, 12]: > 10 mg/kg

Question: For `CCN(CC)Cc1nc(-c2ncn3c2[C@@H]2CCN2C(=O)c2sccc2-3)no1` [M, (S)-1-(5-diethylaminomethyl-1,2,4-oxadiazol-3-yl)-11,11a-dihydro-8H,10H-azeto[1,2-a]imidazo[5,1-c]thieno[3,2-e][1,4]diazepin-8-one], which IC50 [1] is on record?
Answer: Its IC50 is 6.5 nM.

Question: And the ED50 [2, 5]?
Answer: Its ED50 is 0.2 mg/kg.

Question: And the ED50 [2, 6]?
Answer: Its ED50 is 0.3 mg/kg.

Question: What about the ED50 [2, 7] of the same molecule?
Answer: The ED50 was 0.3 mg/kg.

Question: And the ED50 [2, 8]?
Answer: The ED50 was 1.1 mg/kg.

Question: What about the ED50 [2, 9] of the same molecule?
Answer: Its ED50 is 2.1 mg/kg.

Question: What about the ED50 [2, 10] of the same molecule?
Answer: Its ED50 is greater than 10 mg/kg.

Question: What about the ED50 [2, 11] of the same molecule?
Answer: The ED50 was greater than 10 mg/kg.

Question: And the ED50 [2, 12]?
Answer: Its ED50 is greater than 10 mg/kg.

Question: What does the source list for `CCN(CC)Cc1nc(-c2ncn3c2CN(C)C(=O)c2c(Cl)cccc2-3)no1` [K, 7-chloro-3-(5-diethylaminomethyl-1,2,4-oxadiazol-3-yl)-5-methyl-5,6-dihydro-4H-imidazo[1,5-a][1,4]benzodiazepin-6-one]?
Answer: IC50 [1]: 1.4 nM; ED50 [2, 5]: 0.1 mg/kg; ED50 [2, 6]: 0.3 mg/kg; ED50 [2, 7]: 0.3 mg/kg; ED50 [2, 8]: 0.6 mg/kg; ED50 [2, 9]: 2 mg/kg; ED50 [2, 10]: ≥ 10 mg/kg; ED50 [2, 11]: ≥ 10 mg/kg; ED50 [2, 12]: ≥ 10 mg/kg

Question: What does the source list for `CCCN(CCC)Cc1nnc(-c2ncn3c2CN(C)C(=O)c2c(Cl)cccc2-3)o1` [L, 7-chloro-3-(5-dipropylaminomethyl-1,3,4-oxadiazol-2-yl)-5-methyl-5,6-dihydro-4H-imidazo[1,5-a][1,4]benzodiazepin-6-one]?
Answer: IC50 [1]: 4.5 nM; ED50 [2, 5]: 0.3 mg/kg; ED50 [2, 6]: 0.4 mg/kg; ED50 [2, 7]: 0.6 mg/kg; ED50 [2, 8]: 1.5 mg/kg; ED50 [2, 9]: 5 mg/kg; ED50 [2, 10]: > 10 mg/kg; ED50 [2, 11]: > 10 mg/kg; ED50 [2, 12]: > 10 mg/kg

Question: Which results are given for `CCCCN(CCCC)Cc1nnc(-c2ncn3c2[C@@H]2CCN2C(=O)c2sccc2-3)o1` [N, (S)-1-(5-dibutylaminomethyl-1,3,4-oxadiazol-2-yl)-11,11a-dihydro-8H,10H-azeto[1,2-a]imidazo[5,1-c]thieno[3,2-e][1,4]diazepin-8-one]?
Answer: IC50 [1]: 4.8 nM; ED50 [2, 5]: 0.3 mg/kg; ED50 [2, 6]: 0.3 mg/kg; ED50 [2, 7]: 0.3 mg/kg; ED50 [2, 8]: 0.6 mg/kg; ED50 [2, 9]: 2.4 mg/kg; ED50 [2, 10]: > 10 mg/kg; ED50 [2, 11]: > 10 mg/kg; ED50 [2, 12]: > 10 mg/kg
